# Molecular target: T1, cloned human GLP-1 receptor (Homo sapiens, UniProt P43220)
# T1 construct: expressed in transfected cells; host or cells: CHO or HEK-293 cells
# Experiment: Functional cell-based assay: cAMP functional assay
# Conditions: for Emax: 0.5 h, percentage relative to maximal GLP-1-induced cAMP accumulation, na = not active in the assay, read-out: % activation
# In short: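 Monolayer cells incubated 30 min at 37 °C with compounds (0.0001–100 μM) in IMDM containing 100 μM RO 20-1724 PDE inhibitor, 0.1% BSA and 2% DMSO. cAMP measured by HTRF.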
# T1 sequence (P43220 24-463): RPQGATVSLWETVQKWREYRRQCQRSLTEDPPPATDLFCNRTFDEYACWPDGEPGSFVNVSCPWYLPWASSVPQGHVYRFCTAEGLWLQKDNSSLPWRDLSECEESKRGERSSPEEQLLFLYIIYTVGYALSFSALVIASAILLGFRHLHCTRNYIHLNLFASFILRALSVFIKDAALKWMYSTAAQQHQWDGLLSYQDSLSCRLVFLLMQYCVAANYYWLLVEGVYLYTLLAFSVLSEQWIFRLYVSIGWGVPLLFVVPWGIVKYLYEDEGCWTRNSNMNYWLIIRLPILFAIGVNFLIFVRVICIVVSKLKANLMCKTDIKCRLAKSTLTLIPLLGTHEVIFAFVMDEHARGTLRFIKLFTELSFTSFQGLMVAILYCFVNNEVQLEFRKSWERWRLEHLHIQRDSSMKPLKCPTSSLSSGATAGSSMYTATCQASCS
EC50 [nM],Emax [%],SMILES
1300,7,"CN(C)C(=O)N1Cc2cc3c(cc2C[C@H]1C(=O)N[C@@H](Cc1ccc(-c2ccc(C#N)cc2)cc1)C(=O)O)NC(=O)C(c1ccc(OCc2ccc(Cl)c(Cl)c2)cc1)O3 (stereo partly drawn) [Example 33, (S)-3-(4′-Cyano-biphenyl-4-yl)-2-({(S)-3-[4-(3,4-dichloro-benzylozy)-phenyl]-2-oxo-6-dimethylcarbamoyl-2-oxo-2,3,5,6,7,8-hexahydro-1H-4-oxa-1,6-diaza-anthracene-7-carbonyl}-amino)-propionic acid]"
574,51,"CN1C(=O)C(c2ccc(OCc3ccc(Cl)c(Cl)c3)cc2)Oc2cc3c(cc21)C[C@@H](C(=O)N[C@@H](Cc1ccc(-c2ccc(C#N)cc2)cc1)C(=O)O)N(CC#Cc1ccccc1)C3 (stereo partly drawn) [Example 69, (S)-3-(4′-Cyano-biphenyl-4-yl)-2-{[(S)-3-[4-(3,4-dichloro-benzyloxy)-phenyl]-1-methyl-2-oxo-6-(3-phenyl-prop-2-ynyl)-2,3,5,6,7,8-hexahydro-1H-4-oxa-1,6-diaza-anthracene-7-carbonyl]-amino}-propionic acid]"
430,42,"N#Cc1ccc(-c2ccc(C[C@H](NC(=O)[C@@H]3Cc4cc5c(cc4CN3Cc3ccccc3F)OC(c3ccc(OCc4ccc(Cl)c(Cl)c4)cc3)C(=O)N5)C(=O)O)cc2)cc1 (stereo partly drawn) [Example 41, (S)-3-(4′-Cyano-biphenyl-4-yl)-2-{[(S)-3-[4-(3,4-dichloro-benzyloxy)-phenyl]-6-(2-fluoro-benzyl)-2-oxo-2,3,5,6,7,8-hexahydro-1H-4-oxa-1,6-diaza-anthracene-7-carbonyl]-amino}-propionic acid]"
1220,49,"N#Cc1ccc(-c2ccc(C[C@H](NC(=O)[C@@H]3Cc4cc5c(cc4CN3C(=O)c3ccccn3)OC(c3ccc(OCc4ccc(Cl)c(Cl)c4)cc3)C(=O)N5)C(=O)O)cc2)cc1 (stereo partly drawn) [Example 50, (S)-3-(4′-Cyano-biphenyl-4-yl)-2-{[(S)-3-[4-(3,4-dichloro-benzyloxy)-phenyl]-2-oxo-6-(pyridine-2-carbonyl)-2,3,5,6,7,8-hexahydro-1H-4-oxa-1,6-diaza-anthracene-7-carbonyl]-amino}-propionic acid]"
723,30,"CC[C@@H](c1ccccc1)N1Cc2cc3c(cc2C[C@H]1C(=O)N[C@@H](Cc1ccc(-c2ccc(F)cc2)cc1)C(=O)O)N(C)C(=O)[C@@H](c1ccc(OCc2ccc(Cl)c(Cl)c2)cc1)O3 [Example 92, (S)-2-{[(3R,7S)-3-[4-(3,4-Dichloro-benzyloxy)-phenyl]-1-methyl-2-oxo-6-((S)-1-phenyl-propyl)-2,3,5,6,7,8-hexahydro-1H-4-oxa-1,6-diaza-anthracene-7-carbonyl]-amino}-3-(4′-fluoro-biphenyl-4-yl)-propionic acid]"
1600,53,"N#Cc1ccc(-c2ccc(C[C@H](NC(=O)[C@@H]3Cc4cc5c(cc4CN3C(=O)c3cccc(C(F)(F)F)c3)OC(c3ccc(OCc4ccc(Cl)c(Cl)c4)cc3)C(=O)N5)C(=O)O)cc2)cc1 (stereo partly drawn) [Example 24, (S)-3-(4′-Cyano-biphenyl-4-yl)-2-{[(S)-3-[4-(3,4-dichloro-benzyloxy)-phenyl]-2-oxo-6-(3-trifluoromethyl-benzoyl)-2,3,5,6,7,8-hexahydro-1H-4-oxa-1,6-diaza-anthracene-7-carbonyl]-amino}-propionic acid]"
1710,53,"CN1C(=O)C(c2ccc(OCc3ccc(Cl)c(Cl)c3)cc2)Oc2cc3c(cc21)C[C@@H](C(=O)N[C@@H](Cc1ccc(-c2ccc(C#N)cc2)cc1)C(=O)O)N(CC1(c2ccccc2)CCCC1)C3 (stereo partly drawn) [Example 77, (S)-3-(4′-Cyano-biphenyl-4-yl)-2-{[(S)-3-[4-(3,4-dichloro-benzyloxy)-phenyl]-1-methyl-2-oxo-6-(1-phenyl-cyclopentylmethyl)-2,3,5,6,7,8-hexahydro-1H-4-oxa-1,6-diaza-anthracene-7-carbonyl]-amino}-propionic acid]"
476,23,"CC(C)(C)OC(=O)N1Cc2cc3c(cc2C[C@H]1C(=O)N[C@@H](Cc1ccc(-c2ccc(C#N)cc2)cc1)C(=O)O)NC(=O)C(c1ccc(OCc2cnc(Cl)c(Cl)c2)cc1)O3 (stereo partly drawn) [Example 63, (S)-7-[(S)-1-Carboxy-2-(4′-cyano-biphenyl-4-yl)-ethylcarbamoyl]-3-[4-(5,6-dichloro-pyridin-3-ylmethoxy)-phenyl]-2-oxo-1,2,3,5,7,8-hexahydro-4-oxa-1,6-diaza-anthracene-6-carboxylic acid tert-butyl ester]"
565,45,"N#Cc1ccc(-c2ccc(C[C@H](NC(=O)[C@@H]3Cc4cc5c(cc4CN3C(=O)c3ccccc3)OC(c3ccc(OCc4cc(Cl)ccc4Cl)cc3)C(=O)N5)C(=O)O)cc2)cc1 (stereo partly drawn) [Example 58, (S)-2-({(S)-6-Benzoyl-3-[4-(2,5-dichloro-benzyloxy)-phenyl]-2-oxo-2,3,5,6,7,8-hexahydro-1H-4-oxa-1,6-diaza-anthracene-7-carbonyl}-amino)-3-(4′-cyano-biphenyl-4-yl)-propionic acid]"
1100,33,"CC(C)OC(=O)N1Cc2cc3c(cc2C[C@H]1C(=O)N[C@@H](Cc1ccc(-c2ccc(C#N)cc2)cc1)C(=O)O)N(C)C(=O)C(c1ccc(OCc2ccc(Cl)c(Cl)c2)cc1)O3 (stereo partly drawn) [Example 68, (S)-7-[(S)-1-Carboxy-2-(4′-cyano-biphenyl-4-yl)-ethylcarbamoyl]-3-[4-(3,4-dichloro-benzyloxy)-phenyl]-1-methyl-2-oxo-1,2,3,5,7,8-hexahydro-4-oxa-1,6-diaza-anthracene-6-carboxylic acid isopropyl ester]"
850,29,"N#Cc1ccc(-c2ccc(C[C@H](NC(=O)[C@@H]3Cc4cc5c(cc4CN3C(=O)c3ccccc3)OC(c3ccc(OCc4ccc(Cl)c(C(F)(F)F)c4)cc3)C(=O)N5)C(=O)O)cc2)cc1 (stereo partly drawn) [Example 61, (S)-2-({(S)-6-Benzoyl-3-[4-(4-chloro-3-trifluoromethyl-benzyloxy)-phenyl]-2-oxo-2,3,5,6,7,8-hexahydro-1H-4-oxa-1,6-diaza-anthracene-7-carbonyl}-amino)-3-(4′-cyano-biphenyl-4-yl)-propionic acid]"
417,83.5,"N#Cc1ccc(-c2ccc(C[C@H](NC(=O)[C@@H]3Cc4cc5c(cc4CN3C(=O)c3ccco3)OC(c3ccc(OCc4ccc(Cl)c(Cl)c4)cc3)C(=O)N5)C(=O)O)cc2)cc1 (stereo partly drawn) [Example 20, (S)-3-(4′-Cyano-biphenyl-4-yl)-2-{[(S)-3-[4-(3,4-dichloro-benzyloxy)-phenyl]-6-(furan-2-carbonyl)-2-oxo-2,3,5,6,7,8-hexahydro-1H-4-oxa-1,6-diaza-anthracene-7-carbonyl]-amino}-propionic acid]"
988,6.9,"CCC(c1ccccc1)N1Cc2cc3c(cc2C[C@H]1C(=O)N[C@@H](Cc1ccc(-c2ccc(C#N)cc2)cc1)C(=O)O)N(C)C(=O)C(c1ccc(OCc2ccc(Cl)c(Cl)c2)cc1)O3 (stereo partly drawn) [Example 70, (S)-3-(4′-Cyano-biphenyl-4-yl)-2-{[(S)-3-[4-(3,4-dichloro-benzyloxy)-phenyl]-1-methyl-2-oxo-6-(1-phenyl-propyl)-2,3,5,6,7,8-hexahydro-1H-4-oxa-1,6-diaza-anthracene-7-carbonyl]-amino}-propionic acid]"
699,80,"N#Cc1ccc(-c2ccc(C[C@H](NC(=O)[C@@H]3Cc4cc5c(cc4CN3C(=O)N3CCCCC3)OC(c3ccc(OCc4ccc(Cl)c(Cl)c4)cc3)C(=O)N5)C(=O)O)cc2)cc1 (stereo partly drawn) [Example 17, (S)-3-(4′-Cyano-biphenyl-4-yl)-2-{[(S)-3-[4-(3,4-dichloro-benzyloxy)-phenyl]-2-oxo-6-(piperidine-1-carbonyl)-2,3,5,6,7,8-hexahydro-1H-4-oxa-1,6-diaza-anthracene-7-carbonyl]-amino}-propionic acid]"
474,35,"N#Cc1ccc(-c2ccc(C[C@H](NC(=O)[C@@H]3Cc4cc5c(cc4CN3CC#Cc3ccccc3)OC(c3ccc(OCc4ccc(Cl)c(Cl)c4)cc3)C(=O)N5)C(=O)O)cc2)cc1 (stereo partly drawn) [Example 7, (S)-3-(4′-Cyano-biphenyl-4-yl)-2-{[(S)-3-[4-(3,4-dichloro-benzyloxy)-phenyl]-2-oxo-6-(3-phenyl-prop-2-ynyl)-2,3,5,6,7,8-hexahydro-1H-4-oxa-1,6-diaza-anthracene-7-carbonyl]-amino}-propionic acid]"
327,19,CN1C(=O)C(c2ccc(OCc3ccc(Cl)c(Cl)c3)cc2)Oc2cc3c(cc21)C[C@@H](C(=O)N[C@@H](Cc1ccc(-c2ccc(C#N)cc2)cc1)C(=O)O)N(C1CCCC1)C3 (stereo partly drawn) [Example 74]
606,71,"N#Cc1ccc(-c2ccc(C[C@H](NC(=O)[C@@H]3Cc4cc5c(cc4CN3C(=O)OC3CCOCC3)OC(c3ccc(OCc4ccc(Cl)c(Cl)c4)cc3)C(=O)N5)C(=O)O)cc2)cc1 (stereo partly drawn) [Example 11, (S)-7-[(S)-1-Carboxy-2-(4′-cyano-biphenyl-4-yl)-ethylcarbamoyl]-3-[4-(3,4-dichloro-benzyloxy)-phenyl]-2-oxo-1,2,3,5,7,8-hexahydro-4-oxa-1,6-diaza-anthracene-6-carboxylic acid tetrahydro-pyran-4-yl ester]"
1000,22,"CSc1nc(CN2Cc3cc4c(cc3C[C@H]2C(=O)N[C@@H](Cc2ccc(-c3ccc(C#N)cc3)cc2)C(=O)O)NC(=O)C(c2ccc(OCc3ccc(Cl)c(Cl)c3)cc2)O4)ccc1C#N (stereo partly drawn) [Example 46, (S)-3-(4′-Cyano-biphenyl-4-yl)-2-({(S)-6-(5-cyano-6-methylsulfanyl-pyridin-2-ylmethyl)-3-[4-(3,4-dichloro-benzyloxy)-phenyl]-2-oxo-2,3,5,6,7,8-hexahydro-1H-4-oxa-1,6-diaza-anthracene-7-carbonyl}-amino)-propionic acid]"

# Reference: patent US7906507B2, “Oxadiazoanthracene compounds for the treatment of diabetes” (TransTech Pharma, Inc., priority 2008, dated 2011)
